This note sets out measurements from patent US20240024488A1, “COMPOUNDS AND USES THEREOF” (Foghorn Therapeutics Inc., priority 2020, published 2024).

In test [1] the target is T1, HiBit-BRG1 fusion protein (Homo sapiens, UniProt P51532).
T1 construct: expressed in transfected cells
As to the kind of experiment: HiBiT-BRG1 cell-based degradation assay (Nano-Glo HiBiT Lytic Detection, 24 h). The conditions noted are these: HeLa cell line expressing HiBit-BRG1 and LgBit; for Dmax: read-out: BRG1 HiBit Degradation Maximum (%); for DC50: read-out: BRMG1 HiBit Degradation IC50. In short, it runs like this: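 Luminescence from Nano-Glo HiBiT lytic detection, read after 24 h compound exposure, scored degradation in a stable HeLa HiBiT-BRG1/LgBit line seeded at 5000 cells/well. DMSO wells defined 0% and 2 μM known BRM/BRG1 degrader wells defined full degradation.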
In general terms: With HiBiT, luminescence reflects the tagged protein that the partner subunit can reach.

Test [2] deals with T2, HiBit-BRM fusion protein (Homo sapiens, UniProt P51531).
T2 construct: expressed in transfected cells
The test is described as follows: HiBiT-BRM cell-based degradation assay (Nano-Glo HiBiT Lytic Detection, 24 h). The conditions noted are these: HeLa cell line expressing HiBiT-BRM; for DC50: read-out: BRM HiBit Degradation IC50. In short, it runs like this:
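Stable HiBiT-BRM HeLa line; 24 h compound exposure, top final 30 μM, 3-fold, 10 pts in duplicate. Lytic HiBiT/LgBiT luminescence readout. % degradation vs DMSO (0%) and 2 μM known BRM/BRG1 degrader (100%).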

Each structure is given as a SMILES string. Some results are limits rather than exact numbers.

T1 sequence (P51532 whole entry, the tested form may be a part): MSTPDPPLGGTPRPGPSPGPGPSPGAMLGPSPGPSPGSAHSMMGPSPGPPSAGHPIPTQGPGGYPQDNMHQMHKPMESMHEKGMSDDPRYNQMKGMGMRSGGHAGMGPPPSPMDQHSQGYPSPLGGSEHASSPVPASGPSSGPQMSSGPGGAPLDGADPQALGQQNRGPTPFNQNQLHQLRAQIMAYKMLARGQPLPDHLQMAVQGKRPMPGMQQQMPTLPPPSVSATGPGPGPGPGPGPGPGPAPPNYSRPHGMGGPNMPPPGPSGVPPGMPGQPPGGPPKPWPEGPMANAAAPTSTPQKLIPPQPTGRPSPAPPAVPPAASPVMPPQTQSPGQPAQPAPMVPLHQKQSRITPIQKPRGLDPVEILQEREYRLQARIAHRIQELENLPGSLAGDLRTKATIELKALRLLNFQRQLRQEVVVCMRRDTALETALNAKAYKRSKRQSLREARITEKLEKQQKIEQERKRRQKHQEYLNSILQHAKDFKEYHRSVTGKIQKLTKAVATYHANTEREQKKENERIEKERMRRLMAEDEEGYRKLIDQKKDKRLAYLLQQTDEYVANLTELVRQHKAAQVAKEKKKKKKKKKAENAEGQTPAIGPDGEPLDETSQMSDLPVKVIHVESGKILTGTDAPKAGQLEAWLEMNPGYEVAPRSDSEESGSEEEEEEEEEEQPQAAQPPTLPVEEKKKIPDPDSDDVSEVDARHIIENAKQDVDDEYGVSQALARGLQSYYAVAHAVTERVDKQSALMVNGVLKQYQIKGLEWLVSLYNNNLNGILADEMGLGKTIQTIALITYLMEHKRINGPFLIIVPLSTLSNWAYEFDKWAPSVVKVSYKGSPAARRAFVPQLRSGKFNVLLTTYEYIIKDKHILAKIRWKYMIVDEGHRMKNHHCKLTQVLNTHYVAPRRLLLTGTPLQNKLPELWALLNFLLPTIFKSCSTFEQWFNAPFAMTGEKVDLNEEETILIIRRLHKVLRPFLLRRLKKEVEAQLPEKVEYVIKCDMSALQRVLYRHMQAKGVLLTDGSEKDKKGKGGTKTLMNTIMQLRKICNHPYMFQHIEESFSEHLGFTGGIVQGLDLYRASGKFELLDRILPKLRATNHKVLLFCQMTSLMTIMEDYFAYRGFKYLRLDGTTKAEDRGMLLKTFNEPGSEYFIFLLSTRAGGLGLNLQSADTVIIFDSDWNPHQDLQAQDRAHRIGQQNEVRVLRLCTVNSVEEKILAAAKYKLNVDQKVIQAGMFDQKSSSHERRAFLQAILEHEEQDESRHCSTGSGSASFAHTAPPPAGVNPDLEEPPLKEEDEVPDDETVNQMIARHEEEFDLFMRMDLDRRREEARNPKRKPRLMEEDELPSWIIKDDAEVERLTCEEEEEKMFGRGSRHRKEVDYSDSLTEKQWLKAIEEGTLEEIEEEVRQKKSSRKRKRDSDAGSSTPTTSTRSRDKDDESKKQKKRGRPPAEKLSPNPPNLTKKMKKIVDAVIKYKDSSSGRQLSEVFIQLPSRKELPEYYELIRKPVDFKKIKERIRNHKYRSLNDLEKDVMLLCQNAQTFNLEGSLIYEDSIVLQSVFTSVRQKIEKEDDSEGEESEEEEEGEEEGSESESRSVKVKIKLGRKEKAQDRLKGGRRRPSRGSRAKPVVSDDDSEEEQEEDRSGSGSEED
T2 sequence (P51531 whole entry, the tested form may be a part): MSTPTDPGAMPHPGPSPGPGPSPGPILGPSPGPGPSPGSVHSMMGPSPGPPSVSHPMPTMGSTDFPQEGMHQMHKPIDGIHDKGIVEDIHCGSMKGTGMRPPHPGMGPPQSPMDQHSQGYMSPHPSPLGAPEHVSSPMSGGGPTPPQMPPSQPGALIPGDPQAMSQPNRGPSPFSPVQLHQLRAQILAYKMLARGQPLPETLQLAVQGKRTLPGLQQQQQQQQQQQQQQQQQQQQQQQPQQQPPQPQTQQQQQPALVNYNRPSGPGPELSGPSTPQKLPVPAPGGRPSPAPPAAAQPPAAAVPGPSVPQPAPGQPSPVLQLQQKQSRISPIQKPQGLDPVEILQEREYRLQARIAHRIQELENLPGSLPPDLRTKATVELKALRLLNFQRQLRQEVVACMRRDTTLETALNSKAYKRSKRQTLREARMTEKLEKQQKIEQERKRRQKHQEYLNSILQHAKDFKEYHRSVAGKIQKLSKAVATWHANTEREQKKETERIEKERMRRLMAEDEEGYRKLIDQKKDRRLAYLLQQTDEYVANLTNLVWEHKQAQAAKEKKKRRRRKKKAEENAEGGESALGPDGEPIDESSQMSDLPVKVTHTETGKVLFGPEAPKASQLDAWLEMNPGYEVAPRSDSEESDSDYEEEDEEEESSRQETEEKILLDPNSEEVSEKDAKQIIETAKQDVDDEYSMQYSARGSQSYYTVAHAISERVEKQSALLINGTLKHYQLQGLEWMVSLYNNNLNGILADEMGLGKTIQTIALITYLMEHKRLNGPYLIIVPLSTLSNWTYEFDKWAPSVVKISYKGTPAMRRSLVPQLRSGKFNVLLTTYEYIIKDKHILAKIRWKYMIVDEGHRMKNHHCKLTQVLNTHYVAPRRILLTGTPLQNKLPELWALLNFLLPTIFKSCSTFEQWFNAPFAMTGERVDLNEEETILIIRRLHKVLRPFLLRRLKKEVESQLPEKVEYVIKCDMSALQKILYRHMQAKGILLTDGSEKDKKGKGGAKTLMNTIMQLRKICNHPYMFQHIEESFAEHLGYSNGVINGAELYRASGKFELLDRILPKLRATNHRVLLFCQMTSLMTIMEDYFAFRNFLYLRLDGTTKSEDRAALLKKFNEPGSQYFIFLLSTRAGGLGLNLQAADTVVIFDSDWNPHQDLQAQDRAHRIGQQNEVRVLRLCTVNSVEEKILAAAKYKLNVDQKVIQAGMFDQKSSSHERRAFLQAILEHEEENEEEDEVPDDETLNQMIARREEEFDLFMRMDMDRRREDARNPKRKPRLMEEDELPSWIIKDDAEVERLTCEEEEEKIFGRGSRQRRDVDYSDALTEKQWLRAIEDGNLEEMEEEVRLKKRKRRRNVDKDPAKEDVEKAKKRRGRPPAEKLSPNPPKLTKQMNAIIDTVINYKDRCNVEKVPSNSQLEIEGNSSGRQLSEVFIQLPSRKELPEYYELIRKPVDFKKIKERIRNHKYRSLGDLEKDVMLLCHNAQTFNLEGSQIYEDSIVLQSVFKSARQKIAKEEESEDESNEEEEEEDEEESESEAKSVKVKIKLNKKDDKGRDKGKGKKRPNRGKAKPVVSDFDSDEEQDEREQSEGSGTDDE

Consider `Cc1ncsc1-c1ccc([C@H](C)NC(=O)[C@@H]2C[C@@H](O)CN2C(=O)[C@H](c2cc([C@H]3CC[C@H](c4cnc(N5CCC(c6c[nH]c7nnc(-c8ccccc8O)cc67)CC5)nc4)CC3)no2)C(C)C)cc1` [Compound 310, (2S,4R)-4-hydroxy-N-[(1S)-1-[4-(4-methyl-1,3-thiazol-5-yl)phenyl]ethyl]-1-[(2S)-3-methyl-2-{3-[(1r,4r)-4-(2-{4-[3-(2-hydroxyphenyl)-7H-pyrrolo[2,3-c]pyridazin-5-yl]piperidin-1-yl}pyrimidin-5-yl)cyclohexyl]-1,2-oxazol-5-yl}butanoyl]pyrrolidine-2-carboxamide], for which, in test [1], the Dmax was greater than 50% and the DC50 is greater than 100 nM. In test [2], the “BRM HiBit Degradation Maximum (%)” value is reported as “A (“A” indicates maximum degradation ≥ 75%)” and the DC50 is greater than 10 nM.

Regarding `Cc1ncsc1-c1ccc(CNC(=O)[C@@H]2C[C@@H](O)CN2C(=O)[C@@H](NC(=O)CCCCCCC(=O)N2CC(c3c[nH]c4nnc(-c5ccccc5O)cc34)C2)C(C)(C)C)cc1` [Compound 45, (2S,4R)-4-hydroxy-1-((S)-2-(8-(3-(3-(2-hydroxyphenyl)-7H-pyrrolo[2,3-c]pyridazin-5-yl)azetidin-1-yl)-8-oxooctanamido)-3,3-dimethylbutanoyl)-N-(4-(4-methylthiazol-5-yl)benzyl)pyrrolidine-2-carboxamide], the Dmax in test [1] is less than 50%. Besides, the “BRM HiBit Degradation Maximum (%)” value in test [2] is recorded as “C (“C” indicates maximum degradation < 50%)”.

`Cc1ncsc1-c1ccc([C@H](C)NC(=O)[C@@H]2C[C@@H](O)CN2C(=O)C(c2cc(C3CCN(C(=O)[C@H]4CCc5[nH]c6nnc(-c7ccccc7O)cc6c5C4)CC3)no2)C(C)C)cc1` (single isomer, unassigned) [Compound 147]: in test [1], the Dmax is greater than 50% and the DC50 is greater than 100 nM. Also, in test [2], the “BRM HiBit Degradation Maximum (%)” value is “A (“A” indicates maximum degradation ≥ 75%)” and the DC50 was greater than 10 nM.

`Cc1ncsc1-c1ccc([C@H](C)NC(=O)[C@@H]2C[C@@H](O)CN2C(=O)[C@@H](c2cc(N3CCN(C(=O)CN4CC(c5cc6cc(-c7ccccc7O)nnc6[nH]5)C4)CC3)no2)C(C)C)cc1` (racemic) [Compound 269, (2S,4R)-4-hydroxy-1-((R)-2-(3-(4-(2-(3-(3-(2-hydroxyphenyl)-7H-pyrrolo[2,3-c]pyridazin-6-yl)azetidin-1-yl)acetyl)piperazin-1-yl)isoxazol-5-yl)-3-methylbutanoyl)-N-((S)-1-(4-(4-methylthiazol-5-yl)phenyl)ethyl)pyrrolidine-2-carboxamide]: in test [1], the Dmax was greater than 75% and the DC50 is greater than 100 nM. In addition, in test [2], the “BRM HiBit Degradation Maximum (%)” value is on record as “A (“A” indicates maximum degradation ≥ 75%)” and the DC50 is greater than 10 nM.

Regarding `Cc1ncsc1-c1ccc(CNC(=O)[C@@H]2C[C@@H](O)CN2C(=O)[C@@H](NC(=O)CCCNC(=O)[C@@H]2CCc3[nH]c4nnc(-c5ccccc5O)cc4c3C2)C(C)(C)C)cc1` (single isomer, unassigned) [Compound 196], the Dmax in test [1] is less than 50%. Also, in test [2], the “BRM HiBit Degradation Maximum (%)” value is reported as “B (“B” indicates maximum degradation ≥ 50%)” and the DC50 was greater than 100 nM.

Turning to `Cc1ncsc1-c1ccc([C@H](C)NC(=O)[C@@H]2C[C@@H](O)CN2C(=O)[C@@H](c2cc(OCCN(C)[C@H]3CCc4[nH]c5nnc(-c6ccccc6O)cc5c4C3)no2)C(C)C)cc1` (single isomer, unassigned) [Compound 165], the Dmax in test [1] was less than 50%. Further, in test [2], the “BRM HiBit Degradation Maximum (%)” value is given as “A (“A” indicates maximum degradation ≥ 75%)” and the DC50 is greater than 100 nM.

Consider `Cc1ncsc1-c1ccc([C@H](C)NC(=O)[C@@H]2C[C@@H](O)CN2C(=O)[C@@H](c2cc(OCCNC3CC[C@]34C[C@@H](c3cc5cc(-c6ccccc6O)nnc5[nH]3)C4)no2)C(C)C)cc1` (mixture of isomers) [Compound 133, (2S,4R)-4-hydroxy-1-((R)-2-(3-(2-(((1S,4r,6R)-6-(3-(2-hydroxyphenyl)-7H-pyrrolo[2,3-c]pyridazin-6-yl)spiro[3.3]heptan-1-yl)amino)ethoxy)isoxazol-5-yl)-3-methylbutanoyl)-N-((S)-1-(4-(4-methylthiazol-5-yl)phenyl)ethyl)pyrrolidine-2-carboxamide], for which, in test [1], the Dmax was greater than 50% and the DC50 is greater than 100 nM. In test [2], the “BRM HiBit Degradation Maximum (%)” value is “A (“A” indicates maximum degradation ≥ 75%)” and the DC50 was greater than 10 nM.

Consider `Cc1ncsc1-c1ccc(CNC(=O)[C@@H]2C[C@@H](O)CN2C(=O)[C@@H](NC(=O)CCCC(=O)N2CC(c3cc4cc(-c5ccccc5O)nnc4[nH]3)C2)C(C)(C)C)cc1` [Compound 6, (2S,4R)-4-hydroxy-1-((S)-2-(5-(3-(3-(2-hydroxyphenyl)-7H-pyrrolo[2,3-c]pyridazin-6-yl)azetidin-1-yl)-5-oxopentanamido)-3,3-dimethylbutanoyl)-N-(4-(4-methylthiazol-5-yl)benzyl)pyrrolidine-2-carboxamide], for which, in test [1], the Dmax is greater than 75% and the DC50 is greater than 1000 nM. In test [2], the “BRM HiBit Degradation Maximum (%)” value is given as “B (“B” indicates maximum degradation ≥ 50%)” and the DC50 is greater than 1000 nM.

For `Cc1ncsc1-c1ccc([C@H](C)NC(=O)[C@@H]2C[C@@H](O)CN2C(=O)[C@H](c2cc(C3CCN(C(=O)c4cc5cc(-c6ccccc6O)nnc5[nH]4)CC3)no2)C(C)C)cc1` (single isomer, unassigned) [Compound 201], the Dmax in test [1] was less than 50%. In test [2], the “BRM HiBit Degradation Maximum (%)” value is listed as “C (“C” indicates maximum degradation < 50%)”.

For `Cc1ncsc1-c1ccc([C@H](C)NC(=O)[C@@H]2C[C@@H](O)CN2C(=O)C(c2cc(OCC(=O)N[C@@]3(C(=O)O)CCc4[nH]c5nnc(-c6ccccc6O)cc5c4C3)no2)C(C)C)cc1` (single isomer, unassigned) [Compound 88], in test [1], the Dmax is less than 50%. In addition, the “BRM HiBit Degradation Maximum (%)” value in test [2] was “C (“C” indicates maximum degradation < 50%)”.

For the molecule `Cc1ncsc1-c1ccc([C@H](C)NC(=O)[C@@H]2C[C@@H](O)CN2C(=O)[C@@H](c2cc(OCCNC34CC(c5cc6cc(-c7ccccc7O)nnc6[nH]5)(C3)C4)no2)C(C)C)cc1` (racemic) [Compound 53, (2S,4R)-4-hydroxy-1-((R)-2-(3-(2-((3-(3-(2-hydroxyphenyl)-7H-pyrrolo[2,3-c]pyridazin-6-yl)bicyclo[1.1.1]pentan-1-yl)amino)ethoxy)isoxazol-5-yl)-3-methylbutanoyl)-N-((S)-1-(4-(4-methylthiazol-5-yl)phenyl)ethyl)pyrrolidine-2-carboxamide], in test [1], the Dmax is greater than 75% and the DC50 is greater than 10 nM. Also, in test [2], the “BRM HiBit Degradation Maximum (%)” value is recorded as “A (“A” indicates maximum degradation ≥ 75%)” and the DC50 is greater than 10 nM.

In the case of `Cc1ncsc1-c1ccc([C@H](C)NC(=O)[C@@H]2C[C@@H](O)CN2C(=O)[C@@H](c2cc(N3C[C@H]4C[C@@H]3CN4C(=O)[C@@H]3CCc4[nH]c5nnc(-c6ccccc6O)cc5c4C3)no2)C(C)C)cc1` [Compound 101, (2S,4R)-4-hydroxy-1-((R)-2-(3-((1R,4R)-5-((R)-3-(2-hydroxyphenyl)-6,7,8,9-tetrahydro-5H-pyridazino[3,4-b]indole-6-carbonyl)-2,5-diazabicyclo[2.2.1]heptan-2-yl)isoxazol-5-yl)-3-methylbutanoyl)-N-((S)-1-(4-(4-methylthiazol-5-yl)phenyl)ethyl)pyrrolidine-2-carboxamide], in test [1], the Dmax was greater than 75% and the DC50 was greater than 10 nM. Besides, in test [2], the “BRM HiBit Degradation Maximum (%)” value is on record as “A (“A” indicates maximum degradation ≥ 75%)” and the DC50 was less than 10 nM.
